Assay results as given in patent publication US11649238B2, “Substituted pyrazolo[1,5-a]pyrimidines as PI4K inhibitors” (GLAXOSMITHKLINE INTELLECTUAL PROPERTY DEVELOPMENT LIMITED, priority 2018, dated 2023).

What was measured:
PI4KIIIβ = PI4KIIIβ (Homo sapiens, UniProt Q9UBF8); test: Residence Time Assay (Caliper conditioning assay and jump dilution); assay type: biochemical; settings: jump dilution, 2 mM ATP, 1 μM Bodipy-PI
Protocol: Caliper Conditioning Assay
Compound dilutions were prepared in 100% DMSO using a 1 in 3 serial step dilution and a top concentration of 1 mM. A 200 nL stamp from a 12-point titration was transferred to a black 384-well Greiner assay plate ensuring a final DMSO concentration of 1% across the plate and a top final concentration of inhibitor of 10 μM in 20 μL final assay volume. To a well of a 384-well assay plate 10 μL of 2× Enzyme buffer was pre-incubated with compound for 1 h. Buffer without enzyme was used as 100%-inh control. 10 μL of 2× substrate solution was added to initiate the assay such that the final concentrations were 2 mM ATP and 1 μM Bodipy-PI and the plate was incubated at 25° C. for 3 hours. The enzymatic reaction was terminated by adding 40 μL of stop buffer and Substrate (PI) and product (PIP) present in each sample were separated electrophoretically using a LabChip 3000 capillary electrophoresis instrument CALIPER LABCHIP 3000 Drug Discovery System and detected using blue laser (480 nm) for excitation and green CCD (520 nm) for detection (CCD2). Negative control samples (0%-inhibition in the absence of inhibitor) and positive control samples (100%-inhibition, in the absence of enzyme) were assembled in replicates of 48 (4 replicates per caliper sipper) and were used to calculate %-inhibition values in each test well. Percent inhibition (Pinh) was determined using following equation: Pinh=(PSRO %−PSRinh)/(PSRO %−PSR100%)×100
Where PSRinh is the product sum ratio in the presence of inhibitor, PSRO % is the average product sum ratio in the absence of inhibitor and PSR100% is the average product sum ratio in 100%-inhibition control samples; the IC50 values of inhibitors are determined by fitting the inhibition curves (Pinh versus inhibitor concentration) to the 4 parameter sigmoid dose-response model using XLfit 4 software (IBDS).
In a small Eppendorf tube, 5 μL of 2× enzyme solution (0.4 μM-0.8 μM) was mixed with 5 μL 2× compound solution containing 40 to 120-fold the IC50 value determined at 2 mM ATP as described above, and incubated for 1 h at room temperature. The assay was initiated by rapidly mixing 2 μL of the enzyme preincubation mixture with 800 μL substrate mix containing 2 mM ATP and 1 μM Bodipy-PI. 60 μL of each sample was transferred into low volume Greiner 384-well plate, and the Substrate (PI) and product (PIP) present in each sample were separated electrophoretically using a LabChip 3000 capillary electrophoresis instrument CALIPER LABCHIP 3000 Drug Discovery System and detected using blue laser (480 nm) for excitation and green CCD (520 nm) for detection (CCD2) for approximately 8 h (200 measurements from each well). […]

[1] = Spleen Concentration Assay; assay type: in vivo; settings: male, Wistar Han, rat, intravenous, 1 mg/kg, intravenous infusion 1 mg/kg over 1 h, single male Wistar Han rat, 12 hours after the start of dosing
Protocol: e) Spleen Concentration Assay Compounds 17, 18, 19, 22 and 23 were tested in this spleen accumulation assay. Compounds were administered intravenously to rats to determine what the level of the compound in the spleen would be if all of the inhaled dose was absorbed (either orally or through the lungs) and systemic circulation was exposed to the full dose. Compounds 17, 19, 22 and 23 were formulated in 2% DMSO in Kleptose (aq, 10% w/v). Compound 18 was formulated in a 5:45:50 ratio of DMSO:PEG200:water. Formulations were administered as intravenous infusions (1 mg/kg over 1 h) to a single male, Wistar Han rat. 12 hours after the start of dosing, rats were euthanised and spleens were collected. Approximately 0.5 g samples of spleen were taken and homogenised in 4 mL water. 100 μL of the resulting homogenates were prepared by protein precipitation with 300 μL of acetonitrile containing an internal standard and assayed (along with calibration standards prepared in the same manner) by reversed-phase liquid chromatography-mass spectrometry, using a heated electrospray source and operated in the positive ion multiple reaction monitoring mode. The liquid chromatography column used was a Waters Cortecs C18 2.7 μm particle size, 50×2.1 mm column at 60° C., and the mobile phase, operated as a gradient, utilised (A) 0.1% formic acid (aq) and (B) 0.1% formic acid in acetonitrile, operated at a flow rate of 1 mL/min.

PI4KIIIβ, sequence (Q9UBF8 whole entry): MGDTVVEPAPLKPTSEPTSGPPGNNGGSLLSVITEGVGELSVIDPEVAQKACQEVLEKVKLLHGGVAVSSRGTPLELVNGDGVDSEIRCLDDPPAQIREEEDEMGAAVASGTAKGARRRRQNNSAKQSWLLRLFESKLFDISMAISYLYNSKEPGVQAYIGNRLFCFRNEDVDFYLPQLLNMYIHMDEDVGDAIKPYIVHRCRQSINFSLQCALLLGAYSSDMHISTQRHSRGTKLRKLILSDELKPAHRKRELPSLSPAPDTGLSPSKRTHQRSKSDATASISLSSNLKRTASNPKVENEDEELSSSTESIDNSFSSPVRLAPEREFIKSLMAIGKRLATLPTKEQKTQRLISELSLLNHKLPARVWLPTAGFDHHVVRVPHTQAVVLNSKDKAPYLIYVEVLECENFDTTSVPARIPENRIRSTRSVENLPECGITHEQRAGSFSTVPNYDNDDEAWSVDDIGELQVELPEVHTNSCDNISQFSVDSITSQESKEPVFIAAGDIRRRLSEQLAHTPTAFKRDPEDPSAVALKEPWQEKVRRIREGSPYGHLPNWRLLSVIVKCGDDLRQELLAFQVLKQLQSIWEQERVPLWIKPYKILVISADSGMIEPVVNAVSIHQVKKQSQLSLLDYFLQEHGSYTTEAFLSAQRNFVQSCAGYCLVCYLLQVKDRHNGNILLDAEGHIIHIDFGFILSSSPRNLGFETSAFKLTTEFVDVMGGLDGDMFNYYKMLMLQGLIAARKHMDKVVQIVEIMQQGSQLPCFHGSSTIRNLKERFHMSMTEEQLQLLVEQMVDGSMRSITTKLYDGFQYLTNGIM

Row | residence time (PI4KIIIβ) | concentration at 12 h [1] | SMILES
1 | 542 min | – | Cc1ccc(-c2c(C)nn3c(NCc4cccc(-c5nccn5C)c4)cc(C(C)(C)O)nc23)cc1C(=O)N(C)CCCO [Compound 17, 5-(5-(2-Hydroxypropan-2-yl)-2-methyl-7-((3-(1-methyl-1H-imidazol-2-yl)benzyl)amino)pyrazolo[1,5-a]pyrimidin-3-yl)-N-(3-hydroxypropyl)-N,2-dimethylbenzamide]
2 | 997 min | < 7 ng/g | CCN(CCO)C(=O)c1cc(-c2c(C)nn3c(NCc4cccc(-c5nccn5C)c4)cc(C(C)(C)O)nc23)ccc1OC [Compound 19, N-ethyl-N-(2-hydroxyethyl)-5-(5-(2-hydroxypropan-2-yl)-2-methyl-7-((3-(1-methyl-1H-imidazol-2-yl)benzyl)amino)pyrazolo[1,5-a]pyrimidin-3-yl)-2-methoxybenzamide]
3 | 528 min | – | COc1ccc(-c2c(C)nn3c(NCc4cccc(-c5nccn5C)c4)cc(C(C)(C)O)nc23)cc1C(=O)N(C)C1CCOCC1 [Compound 21, 5-(5-(2-Hydroxypropan-2-yl)-2-methyl-7-((3-(1-methyl-1H-imidazol-2-yl)benzyl)amino)pyrazolo[1,5-a]pyrimidin-3-yl)-2-methoxy-N-methyl-N-(tetrahydro-2H-pyran-4-yl)benzamide]
4 | 1670 min | < 7 ng/g | Cc1ccc(-c2c(C)nn3c(NCc4cccc(-c5nccn5C)c4)cc(C(C)(C)O)nc23)cc1C(=O)N(C)[C@@H](C)CO [Compound 22, (S)—N-(1-hydroxypropan-2-yl)-5-(5-(2-hydroxypropan-2-yl)-2-methyl-7-((3-(1-methyl-1H-imidazol-2-yl)benzyl)amino)pyrazolo[1,5-a]pyrimidin-3-yl)-N,2-dimethylbenzamide]
